Assays:
[1] = biological target: T1, ATP-dependent translocase ABCB1 (Homo sapiens, UniProt P08183); experiment: Reversal of human MDR1-mediated multidrug resistance in mouse L5178Y cells expressing MDR1 assessed as fluorescence activity ratio at 2 uM after 10 mins by rhodamine-123 exclusion test; type: cell-based
[2] = biological target: T1, ATP-dependent translocase ABCB1; experiment: Reversal of human MDR1-mediated multidrug resistance in mouse L5178Y cells expressing MDR1 assessed as fluorescence activity ratio at 20 uM after 10 mins by rhodamine-123 exclusion test; type: cell-based
L5178Y [3] = experiment: Antiproliferative activity against mouse L5178Y cells after 72 hrs by MTT assay; type: functional; details: read-out: ID50 (the source's name)
L5178Y [4] = experiment: Antiproliferative activity against multidrug resistant mouse L5178Y cells expressing human MDR1 after 72 hrs by MTT assay; type: functional; details: read-out: ID50 (the source's name)
[5] = biological target: T1, ATP-dependent translocase ABCB1; experiment: Reversal of human MDR1-mediated multidrug resistance in mouse L5178Y cells expressing MDR1 assessed as mean fluorescence intensity of rhodamine-123 uptake at 20 uM after 10 mins by flow cytometry; type: cell-based
[6] = biological target: T1, ATP-dependent translocase ABCB1; experiment: Reversal of human MDR1-mediated multidrug resistance in mouse L5178Y cells expressing MDR1 assessed as mean fluorescence intensity of rhodamine-123 uptake at 2 uM after 10 mins by flow cytometry; type: cell-based
[7] = biological target: T1, ATP-dependent translocase ABCB1; details: l5178y, 10 min, 22.2 µM
Description: Reversal of human MDR1-mediated multidrug resistance in mouse L5178Y cells expressing MDR1 assessed as mean fluorescence intensity of rhodamine-123 uptake at 22.2 uM after 10 mins by flow cytometry

T1 sequence (P08183 whole entry): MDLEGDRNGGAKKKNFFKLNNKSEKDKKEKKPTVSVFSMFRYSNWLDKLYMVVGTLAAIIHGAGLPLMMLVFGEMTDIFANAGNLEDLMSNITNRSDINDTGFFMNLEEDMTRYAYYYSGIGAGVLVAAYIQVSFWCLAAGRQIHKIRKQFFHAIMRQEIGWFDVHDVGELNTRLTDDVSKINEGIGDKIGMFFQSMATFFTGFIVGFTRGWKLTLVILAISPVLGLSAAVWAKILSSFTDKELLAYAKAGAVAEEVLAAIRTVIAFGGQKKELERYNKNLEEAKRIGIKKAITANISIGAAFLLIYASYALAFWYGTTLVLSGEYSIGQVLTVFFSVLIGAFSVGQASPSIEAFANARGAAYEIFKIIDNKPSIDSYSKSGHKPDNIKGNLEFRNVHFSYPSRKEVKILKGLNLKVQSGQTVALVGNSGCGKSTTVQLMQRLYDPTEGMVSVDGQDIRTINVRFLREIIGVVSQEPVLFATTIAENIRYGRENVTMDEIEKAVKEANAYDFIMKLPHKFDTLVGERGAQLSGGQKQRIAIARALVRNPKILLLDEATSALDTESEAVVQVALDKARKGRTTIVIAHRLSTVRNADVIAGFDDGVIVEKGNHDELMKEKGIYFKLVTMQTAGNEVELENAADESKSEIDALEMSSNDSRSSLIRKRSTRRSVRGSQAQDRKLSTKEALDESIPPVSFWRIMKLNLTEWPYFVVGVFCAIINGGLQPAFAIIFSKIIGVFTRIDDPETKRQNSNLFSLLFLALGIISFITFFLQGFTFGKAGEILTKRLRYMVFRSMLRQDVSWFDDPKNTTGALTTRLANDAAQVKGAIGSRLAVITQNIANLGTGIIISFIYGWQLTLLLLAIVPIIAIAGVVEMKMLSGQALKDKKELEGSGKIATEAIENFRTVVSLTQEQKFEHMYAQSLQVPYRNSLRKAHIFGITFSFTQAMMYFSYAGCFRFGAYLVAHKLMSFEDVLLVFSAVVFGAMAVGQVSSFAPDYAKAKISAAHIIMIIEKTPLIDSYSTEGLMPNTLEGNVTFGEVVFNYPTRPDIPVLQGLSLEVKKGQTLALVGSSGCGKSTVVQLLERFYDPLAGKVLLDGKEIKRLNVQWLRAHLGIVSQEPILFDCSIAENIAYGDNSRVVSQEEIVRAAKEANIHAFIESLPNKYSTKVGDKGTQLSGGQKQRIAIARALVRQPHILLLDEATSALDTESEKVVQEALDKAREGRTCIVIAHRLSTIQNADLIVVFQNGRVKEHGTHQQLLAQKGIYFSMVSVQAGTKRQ

| SMILES | Ratio [1] | Ratio [2] | IC50 (L5178Y [3]) [µM] | IC50 (L5178Y [4]) [µM] | Activity [5] | Activity [6] | Flu intensity [7] | Flu intensity [5] | Flu intensity [6] |
| --- | --- | --- | --- | --- | --- | --- | --- | --- | --- |
| Cc1cc2c([nH]c3ccccc32)c(CCN)n1 [TEBERNINE C] | 0.79 | 1.43 | 70.6 | 51.5 | 15.3 | 8.4 |  |  |  |
| COc1ccc(CCN(C)CCCC(C#N)(c2ccc(OC)c(OC)c2)C(C)C)cc1OC (centres undefined) [VERAPAMIL] |  |  |  |  |  |  | 98.9 |  |  |
| Cc1cc2c([n-]c3ccccc32)c2[n+]1C(C)NCC2 (centres undefined) [TABERNINE A] | 0.72 | 1.73 | 45.9 | 37.5 |  |  |  | 18.5 | 7.7 |
| Cc1cc2c3ccccc3n3c2c(n1)CCNC3C (centres undefined) [TEBERNINE B] | 0.78 | 0.99 | 46.6 | 39.7 | 10.7 | 8.9 |  |  |  |

Source: ChEMBL document CHEMBL1152951, “Tabernines A-C, beta-carbolines from the leaves of Tabernaemontana elegans” (J Nat Prod, 2009)
